Here are results for 26 molecules from publication PMC4519324, “Substrate Specificity, Inhibitor Selectivity and Structure-Function Relationships of Aldo-Keto Reductase 1B15: A Novel Human Retinaldehyde Reductase” (PLoS ONE, 2015).

Where two headings read alike, the source gives them in different places.

Assay [1] addresses T1, AKR1B15 (Homo sapiens, UniProt C9JRZ8).
T1 construct: made in house; host or cells: E. coli BL21(DE3), with or without chaperone plasmids pBB540/pBB542
Kind of assay: Spectrophotometric activity assay (NADPH decrease at 340 nm), substrate kinetics. The class given is biochemical. The conditions noted are these: for Km / k cat: substrate, spectrophotometric, 0.2 mM NADPH; for Km: 100 mM sodium phosphate pH 7.0, 25°C, <1 values only approximate; for k cat: pH 7.0, 25°C.

Assay [2] has as its target T2, AKR1B10 (Homo sapiens, UniProt O60218).
T2 construct: made in house
Described as above. It counts as biochemical. The conditions noted are these: for k cat / Km: substrate, spectrophotometric; for Km: read-out: Km; for activity class: at saturating concentration of substrate for AKR1B15.

Assay [3] addresses T3, AKR1B1 (Homo sapiens, UniProt P15121).
T3 construct: made in house
To be noted: substrate, cited from earlier work; for Km: read-out: Km.

Assay [4] addresses T2, AKR1B10. To be noted: substrate; cited from earlier work.
In assay [5] the target is T3, AKR1B1. In words: Spectrophotometric activity assay (NADPH decrease at 340 nm), substrate kinetics. The conditions noted are these: for activity class: at saturating concentration of substrate for AKR1B15. It counts as biochemical. On the procedure:
(§1) Activities were determined in 100 mM sodium phosphate, pH 7.0, at 25°C, using 0.2 mM NADPH in 0.2-cm path length cuvettes, with freshly prepared substrate solutions. One unit of activity is defined as the amount of enzyme required to transform 1 μmol of substrate per min at 25°C.
(§2) All compounds tested as inhibitors were dissolved in DMSO and assayed in a final concentration of 0.1% (v/v) DMSO using 6 mM D,L-glyceraldehyde as a substrate. Kinetic constant and IC50 (compound concentration that inhibits enzymatic activity by 50%) values were calculated by fitting the initial rates to the appropriate equation using Grafit 5.0 (Eritacus Software) and values were given as the mean ± standard error of three experiments. Standard error values were less than 20% of the mean values.

The target of assay [6] is T2, AKR1B10. On the set-up: method as in PMID 18087047. The conditions noted are these: HPLC-based method; cited from earlier work.
Assay [7] deals with T3, AKR1B1. Details: method as in PMID 18087047. The conditions noted are these: HPLC-based method; cited from earlier work.
Assay [8] addresses T1, AKR1B15. Kind of assay: HPLC enzymatic activity assay with retinaldehyde isomers. It counts as biochemical. The conditions noted are these: HPLC-based method; for k cat: pH 7.4. How it is done:
Activity assays with retinoids were carried out using an HPLC-based methodology. Briefly, retinaldehyde isomers were solubilized using glass tubes by a 10-min sonication at molar ratio 1:1 with fatty acid-free bovine serum albumin in 90 mM potassium phosphate, 40 mM potassium chloride, pH 7.4. The actual amount of solubilized retinoid was determined based on the corresponding molar absorption coefficient in aqueous solutions at the appropriate wavelength: ε400 = 29,500 M^−1·cm^−1 for all-trans-retinaldehyde and ε367 = 26,700 M^−1·cm^−1 for 9-cis-retinaldehyde. For retinol isomers, which were used as standards of the reaction product, their concentration was determined in hexane using ε325 = 51,770 M^−1·cm^−1 for all-trans-retinol and ε325 = 43,765 M^−1·cm^−1 for 9-cis-retinol. The reactions were started by the addition of cofactor and carried out for 15 min at 37°C in a final volume of 0.5 mL. With the aim to measure the steady-state enzymatic activity, the concentration of enzyme was kept from 25- to 100-fold lower than that of the substrate for all the enzymatic assays. The reactions were stopped by the addition of 1 mL of cold methanol and after two rounds of extraction with hexane, retinoids were analyzed by HPLC as previously described. All retinoid manipulations were performed under dim light.
as §2

In assay [9] the target is T1, AKR1B15. Kind of assay: Inhibition screening with D,L-glyceraldehyde as substrate. The class given is biochemical. The conditions noted are these: for IC50: 6 mM D,L-glyceraldehyde as substrate, 0.1% DMSO. How it is done: as §1, §2

T1 sequence (C9JRZ8 whole entry): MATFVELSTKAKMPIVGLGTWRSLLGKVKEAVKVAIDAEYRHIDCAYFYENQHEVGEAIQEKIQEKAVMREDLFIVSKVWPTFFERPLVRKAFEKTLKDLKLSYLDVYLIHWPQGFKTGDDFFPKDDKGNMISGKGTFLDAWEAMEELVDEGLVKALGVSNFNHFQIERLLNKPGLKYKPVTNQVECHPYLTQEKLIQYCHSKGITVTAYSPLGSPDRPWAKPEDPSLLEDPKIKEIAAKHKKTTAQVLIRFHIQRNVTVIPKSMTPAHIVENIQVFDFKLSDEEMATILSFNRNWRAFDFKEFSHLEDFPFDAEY
T2 sequence (O60218 whole entry): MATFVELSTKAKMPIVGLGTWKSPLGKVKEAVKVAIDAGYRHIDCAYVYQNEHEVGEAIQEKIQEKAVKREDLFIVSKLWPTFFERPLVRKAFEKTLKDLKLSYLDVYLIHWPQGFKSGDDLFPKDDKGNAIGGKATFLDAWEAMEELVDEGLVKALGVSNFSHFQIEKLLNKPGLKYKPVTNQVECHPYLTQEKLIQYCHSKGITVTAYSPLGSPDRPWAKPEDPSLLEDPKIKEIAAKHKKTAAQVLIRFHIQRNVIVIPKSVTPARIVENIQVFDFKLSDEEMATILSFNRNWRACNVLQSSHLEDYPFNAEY

With `CC(C)=CCCC(C)=CC=O` (mixture of isomers) [citral], the Km was determined as 1.5 µM in [1] (read-out: Km) and 4.5 µM in [2]. For the same molecule, the “k cat” value in assay [1] stood at 0.0917 s⁻¹; in assay [2], 0.583 s⁻¹.

For `O=CC(O)CO` (racemic) [D,L-glyceraldehyde], the results for the Km in assay [3], in assay [1] (read-out: Km) and in assay [4] were 50 µM, 880 µM and 6000 µM, respectively. In addition, the “k cat (min^−1)” value is recorded as 31 ^a min^−1 in assay [3] and 35 ^a min^−1 in assay [4]. Further, in assay [1], the “k cat” value was 0.178 s⁻¹.

As to `CC(=O)C(C)=O` [2,3-butanedione], the Michaelis constant (Km) in assay [3] was 110 µM; in assay [1] (read-out: Km), under 1 µM; in assay [4], 540 µM. The “k cat (min^−1)” value is 23 ^d min^−1 in assay [3] and 260 ^d min^−1 in assay [4]. The “k cat” value in assay [1] stood at 0.177 s⁻¹.

For `CCCC(=O)C(C)=O` [2,3-hexanedione], the Km is 17 µM in assay [3], under 1 µM in [1] (read-out: Km) and 51 µM in [4]. The “k cat (min^−1)” value in assay [3] is reported as 49 ^b min^−1; in assay [4], 79 ^b min^−1. The “k cat” value in assay [1] came out at 0.158 s⁻¹.

As to `CC(=O)CC(C)=O` [2,4-pentanedione], the Michaelis-Menten constant (Km) in [1] (read-out: Km) was found to be 40 µM; in assay [2] it was 58900 µM. Besides, the “k cat” value is 0.0367 s⁻¹ in assay [1] and 0.143 s⁻¹ in assay [2].

As to `CCC(C)=O` [2-butanone], the “activity class” value in [5] is “LA (LA, low activity (≤ 10 mU/mg) was detected at saturating concentration of substrate for AKR1B15)”; in assay [2], “LA (LA, low activity (≤ 10 mU/mg) was detected at saturating concentration of substrate for AKR1B15)”. Besides, the Km in assay [1] (read-out: Km) was found to be 780 µM. In assay [1], the “k cat” value came to 0.175 s⁻¹.

Take `O=C1C=CCCC1` [2-cyclohexen-1-one]: the “activity class” value in [5] is listed as “LA (LA, low activity (≤ 10 mU/mg) was detected at saturating concentration of substrate for AKR1B15)”; in [2], “LA (LA, low activity (≤ 10 mU/mg) was detected at saturating concentration of substrate for AKR1B15)”. For the same molecule, the Km in assay [1] (read-out: Km) came to 365 µM. Further, in assay [1], the “k cat” value came out at 0.0735 s⁻¹.

Turning to `CCC(=O)CC(=O)CC` [3,5-heptanedione], the Km in assay [1] (read-out: Km) was 1300 µM; in assay [2] it was over 50000 µM. For the same molecule, the “k cat” value in assay [1] turned out to be 0.0883 s⁻¹.

With `C=CC(C)=O` [3-buten-2-one], the “activity class” value was “LA (LA, low activity (≤ 10 mU/mg) was detected at saturating concentration of substrate for AKR1B15)” in [5] and “LA (LA, low activity (≤ 10 mU/mg) was detected at saturating concentration of substrate for AKR1B15)” in assay [2]. Besides, the Km in assay [1] (read-out: Km) was 21.3 µM. In addition, the “k cat” value in [1] was 0.137 s⁻¹.

Regarding `CCCCCC=CC(C)=O` [3-nonen-2-one], the “activity class” value in assay [5] was “LA (LA, low activity (≤ 10 mU/mg) was detected at saturating concentration of substrate for AKR1B15)”; in assay [2] it was “LA (LA, low activity (≤ 10 mU/mg) was detected at saturating concentration of substrate for AKR1B15)”. The Km in [1] (read-out: Km) amounted to 1.7 µM. Besides, the “k cat” value in assay [1] was 0.113 s⁻¹.

With `CCCCCC(O)C=CC=O` (centres unmarked) [4-hydroxy-2-nonenal], the Km is 716 µM in assay [3], 2.2 µM in assay [1] (read-out: Km) and 31 µM in [4]. The “k cat (min^−1)” value in assay [3] is reported as 50 ^c min^−1; in assay [4], 121 ^c min^−1. Besides, in [1], the “k cat” value was 0.0867 s⁻¹.

Turning to `CC1=C(/C=C/C(C)=C\C=C\C(C)=C\C=O)C(C)(C)CCC1` [9-cis-retinaldehyde], the Km in assay [6] is 0.7 ± 0.1 µM; in [7], 0.4 ± 0.1 µM; in assay [8] (37°C, pH 7.4, read-out: Km), 0.16 ± 0.03 µM; in assay [8] (read-out: Km value), 0.16 µM. Further, the “k cat” value was 0.015 ± 0.0017 s⁻¹ in assay [6], 0.012 ± 0.0033 s⁻¹ in assay [7] and 0.0633 ± 0.0033 s⁻¹ in [8] (37°C).

Consider `CC1=C(/C=C/C(C)=C/C=C/C(C)=C/C=O)C(C)(C)CCC1` [All-trans-retinaldehyde], for which the Km in [6] is 0.6 ± 0.1 µM; in assay [7], 1.1 ± 0.1 µM; in assay [8] (37°C, pH 7.4, read-out: Km) it was 1 ± 0.3 µM. Moreover, the figures for the “k cat” value in assay [6], in [7] and in assay [8] (37°C) were 0.45 ± 0.017 s⁻¹, 0.015 ± 0.0017 s⁻¹ and 0.09 ± 0.0083 s⁻¹, respectively.

Regarding `CC(/C=C1\SC(=S)N(CC(=O)O)C1=O)=C\c1ccccc1` [Epalrestat], the IC50 in assay [9] is over 50 µM.

Take `NC(=O)C1=CN([C@@H]2O[C@H](COP(=O)(O)OP(=O)(O)OC[C@H]3O[C@@H](n4cnc5c(N)ncnc54)[C@H](O)[C@@H]3O)[C@@H](O)[C@H]2O)C=CC1` [NADH]: the “enzymatic activity relative to that with NADPH” value in assay [1] (0.2 mM NADH) is “less than 5%”.

Turning to `CC1(C)CC[C@]2(C(=O)O)CC[C@]3(C)C(=CC[C@@H]4[C@@]5(C)CC[C@H](O)C(C)(C)[C@@H]5CC[C@]43C)[C@@H]2C1` [Oleanolic acid], the IC50 in [9] is over 100 µM.

As for `CCCCCCCCCCCC(=O)N(C)CC(=O)[O-].[Na+]` [Sarkosyl, sodium N-lauroylsarcosinate], in assay [9] (data not shown), the inhibition model result is listed as “non-competitive”.

In turn, `O=C1NC(=O)[C@@]2(CCOc3ccc(F)cc32)N1` [Sorbinil] displayed an IC50 in assay [9] of over 100 µM.

Consider `C=CC=O` [acrolein], for which the Km was 884 µM in assay [3], 36 µM in assay [1] (read-out: Km) and 110 µM in assay [4]. Moreover, the “k cat (min^−1)” value is given as 11 ^c min^−1 in [3] and 116 ^c min^−1 in assay [4]. For the same molecule, the “k cat” value in [1] was 0.147 s⁻¹.

Take `O=Cc1ccccc1` [benzaldehyde]: the Km in [3] was 21 µM; in assay [1] it was under 1 µM; in assay [4], 9.7 µM. The “k cat (min^−1)” value in assay [3] is 91 ^b min^−1; in [4], 104 ^b min^−1. For the same molecule, the “k cat” value in [1] is 0.202 s⁻¹.

As to `O=C/C=C/c1ccccc1` [cinnamaldehyde], the Km in assay [5] (substrate, spectrophotometric) was 31 µM; in assay [1] (read-out: Km), under 1 µM; in [2] it was 34.7 µM. Also, the “k cat” value turned out to be 0.483 s⁻¹ in assay [5] (substrate, spectrophotometric); 0.222 s⁻¹ in assay [1]; 4 s⁻¹ in [2].

In the case of `CC(C)=CCCC(C)=CCCC(C)=CC=O` [farnesal], the Km in assay [3] is 37 µM; in assay [1] (read-out: Km), under 1 µM; in [4] it was 2.3 µM. The “k cat (min^−1)” value in assay [3] is reported as 27 ^b min^−1; in assay [4] it was 30 ^b min^−1. For the same molecule, the “k cat” value in [1] stood at 0.08 s⁻¹.

`OC[C@H]1OC(O)[C@H](O)[C@@H](O)[C@@H]1O` (some centres unmarked) [glucose]: the rate of reduction in assay [5] (200 mM glucose) turned out to be 500 mU/mg; in assay [1] (200 mM glucose), 12 mU/mg.

On to `CCCCCC=O` [hexanal], for which the Km in assay [3] is 5 µM; in assay [1] (read-out: Km) it was 3.1 µM; in [4], 112 µM. Besides, the “k cat (min^−1)” value in [3] is on record as 28 ^b min^−1; in [4], 142 ^b min^−1. In addition, the “k cat” value in [1] is 0.122 s⁻¹.

As to `O=Cc1cccnc1` [pyridine-3-aldehyde], the values for the Km in [3], in [1] (read-out: Km) and in [4] were 10 µM, 2.9 µM and 13 µM, respectively. The “k cat (min^−1)” value in [3] was 61 ^b min^−1; in assay [4], 150 ^b min^−1. Further, in assay [1], the “k cat” value came out at 0.15 s⁻¹.

`CCC/C=C/C=O` [trans-2-hexenal]: the figures for the Km in [3], in assay [1] (read-out: Km) and in [4] were 9 µM, 5 µM and 28 µM, respectively. For the same molecule, the “k cat (min^−1)” value in assay [3] is on record as 16 ^b min^−1; in assay [4], 49 ^b min^−1. Further, the “k cat” value in assay [1] turned out to be 0.188 s⁻¹.
